The target in one assay is T1, TRPC5 (Homo sapiens, UniProt Q9UL62).
T1 construct: expressed in transfected cells
T1 sequence (Q9UL62 1-973): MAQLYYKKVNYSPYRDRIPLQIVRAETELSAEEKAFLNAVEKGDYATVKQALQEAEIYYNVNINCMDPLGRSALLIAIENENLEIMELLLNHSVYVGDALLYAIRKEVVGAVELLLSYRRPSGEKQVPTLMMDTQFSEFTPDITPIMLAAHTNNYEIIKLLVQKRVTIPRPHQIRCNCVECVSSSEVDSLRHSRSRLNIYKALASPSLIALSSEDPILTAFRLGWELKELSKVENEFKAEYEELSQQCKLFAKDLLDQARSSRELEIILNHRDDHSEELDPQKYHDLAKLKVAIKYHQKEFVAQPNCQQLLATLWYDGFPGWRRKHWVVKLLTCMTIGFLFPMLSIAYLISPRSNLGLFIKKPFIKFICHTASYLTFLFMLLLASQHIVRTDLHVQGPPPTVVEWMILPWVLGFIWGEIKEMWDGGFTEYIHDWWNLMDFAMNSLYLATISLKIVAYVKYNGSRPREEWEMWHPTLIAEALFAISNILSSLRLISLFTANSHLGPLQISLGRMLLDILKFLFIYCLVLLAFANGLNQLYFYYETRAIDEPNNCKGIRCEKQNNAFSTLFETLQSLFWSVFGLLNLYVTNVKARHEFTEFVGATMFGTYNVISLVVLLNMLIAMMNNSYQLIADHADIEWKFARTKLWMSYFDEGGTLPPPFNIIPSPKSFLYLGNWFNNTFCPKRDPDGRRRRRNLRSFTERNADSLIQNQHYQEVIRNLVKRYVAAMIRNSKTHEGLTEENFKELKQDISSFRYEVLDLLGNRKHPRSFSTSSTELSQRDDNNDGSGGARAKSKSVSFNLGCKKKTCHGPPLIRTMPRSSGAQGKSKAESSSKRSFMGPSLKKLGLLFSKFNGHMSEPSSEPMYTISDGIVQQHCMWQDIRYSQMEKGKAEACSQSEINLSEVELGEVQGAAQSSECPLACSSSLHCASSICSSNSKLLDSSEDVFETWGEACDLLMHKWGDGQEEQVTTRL
In words: TRPC5 activity assay (FLIPR calcium fluorescence, Riluzole stimulation). It is filed as cell-based. The conditions noted are these: HEK-TREx hTRPC5 cells, 30 μM Riluzole stimulation; read-out: TRPC5 (IC50 class). The method, then:
ICLN-1633 cells (HEK-TREx hTRPC5) expressing TRPC5 were generated as follows. Commercially available HekTrex-293 cells were seeded at 0.7×10^6 cells/well in a 1×6-well plate 24 hrs prior to transfection using 2 mL cell growth media containing no antibiotics (1× DMEM/high glucose (Hyclone #SH30022.02); 10% fetal bovine serum (Sigma) 2 mM sodium pyruvate, 10 mM HEPES). […] On day 2, 2 μg of plasmid DNA plus 6 μl of Xtreme-GENE HP reagent in Optimem (200 μl total volume) was prepared and incubated for 15 min at room temperature. This plasmid solution was then gently overlayed dropwise onto each well and the plate was gently swirled to mix complex with the media for approximately 30 seconds. Transfected cells were incubated at 37° C. in a 10%/CO2 incubator for 24 hrs. The transfected cells were harvested and transferred into 2×150 mm dishes containing cell growth media with no antibiotics at 37° C.
The next day selection was initiated to generate a stable pool by adding cell growth media containing 150 μg/mL Hygromycin and 5 μg/mL Blasticidin and cells were allowed to grow. Media with the selection agent was changed every 1-2 days as needed to remove dead cells. After 7 days, the hygromycin concentration was reduced to 75 μg/mL and cells growth was allowed to continue.
Single clones were selected as follows. The stable pool was diluted to 10 cells/mL and seeded (100 μl/well) into 24×96 well plates (˜1 cell/well) and allowed to grow for 7 days in cell growth media. Fresh media (100 μl) was added and the cells allowed to grow for another 1-2 weeks and then stored frozen or used immediately.
10-point dose response curves were generated using the Echo-550 acoustic dispenser. Compound source plates were made by serially diluting compound stocks to create 10 mM, 1 mM, and 0.1 mM solutions in DMSO into Echo certified LDV plates. The Echo then serially spotted 100%/DMSO stock solutions into source dose response plates to generate a 4-fold dilution scheme. 100%0/DMSO was added to the spotted dose response plates to bring the final volume to 5 μl. 300 nl of the dose response stock plate was then spotted into pre-incubation and stimulation assay plates. 50 μl of pre-incubation buffer and 100 μl of stimulation buffer was then added to the plates resulting in a final assay test concentration range of 30 μM to 0.0001 μM with a final DMSO concentration of 0.3%.
Human ICLN-1633 cells expressing were plated onto 384 well, black PDL-coated microplates and maintained in TRPC5 growth media the day prior to use for experiments. TRPC5 expression was induced by the application of 1 μg/mL tetracycline at the time of plating. […] Cells are incubated at room temperature, protected from light, for 60-90 minutes. After the incubation period, the dye is removed and replaced with 10 μl of EBSS. Cell, pre-incubation and stimulation plates are loaded onto the FLIPR-II and the assay is initiated. The FLIPR measures a 10 second baseline and then adds 10 μl of 2X compounds (or controls). Changes in fluorescence are monitored for an additional 5 minutes. After the 5 minute pre-incubation, 20 μl of 2X Riluzole (with 1X compound or controls) is added to the cell plate. The final Riluzole stimulation concentration in the assay is 30 μM. After the Riluzole addition, changes in fluorescence are monitored for an additional 5 minutes.
Compound modulation of TRPC5 calcium response was determined as follows. After the Englerin A, fluorescence was monitored for a 5-minute period. The maximum relative fluorescence response (minus the control response of 1 μM of an internal control compound known to maximally block TRPC5 calcium response, the “REF INHIB” in the formula below) was captured and exported from the FLIPR.
Compound effect is calculated as % inhibition using the following formula:
[formula] wherein “RFU” is the relative fluorescent units.

Assay [1] has as its system PAN induced glomerular kidney injury. In words: Puromycin aminonucleoside (PAN)-induced glomerular injury in rats. Type of assay: in vivo, Sprague-Dawley rats. The conditions noted are these: PAN-injured rats. From the text: The objective of this study is to evaluate the dose-dependent effects of compound 100 on PAN induced glomerular kidney injury as indexed by albuminuria. Eighty (80), male Sprague-Dawley rats weighing approximately 125-150 g and approximately 5-6 weeks of age were acquired from Charles River. They were fed a standard chow diet (Harlan 8640), housed under standard conditions, and allowed to acclimate for at least 5 days prior to study inception. On D-2, rats were placed into weight-matched treatment groups and were placed, individually housed, into metabolic cages for the balance of the study. A 24 hour baseline (Day 0) urine was collected followed by a baseline blood collection via conscious tail venous puncture. Rats were then administered vehicle or test article. Two (2) hours following administration of vehicle or test agent on Day 0, rats received an administration of (5 ml/kg, s.c.) vehicle (sterile saline) or puromycin aminonucleoside (PAN; challenge agent; 75 mg/kg) dissolved in vehicle. Intermittent (Day 4, 7 and 10) 24 hour urine volumes were determined and samples (4 samples/animal/time point; 0.5 ml/sample) were obtained. Additionally, intermittent (Day 4, 7 and 10) blood samples were collected via conscious tail venous puncture 2 hours±1 minute post-AM dose. Immediately following the last blood collection, rats were anesthetized with isoflurane, tissues harvested, and animals sacrificed. Endpoint kidney weights and indices were obtained. Urine samples were immediately flash-frozen in liquid N2 and stored at −80° C. until analyzed. Whole blood samples collected on K3EDTA were processed appropriately for the production of plasma for PK measurements.

In assay [2] the test system is AT1R transgenic rat model of FSGS. The assay can be described thus: AT1R transgenic rat model of FSGS. Type of assay: in vivo. To be noted: AT1R transgenic rats, UniNX and AngII infusion, orally once daily 3 mg/kg or 10 mg/kg, up to 3 weeks. The method, then:
The AT1R transgenic rat model of FSGS is characterized by podocyte-specific expression of human AT1R. […] See Zhou et al., Science (2017), vol. 358 (6368), 1332-1336. In the present study, pathophysiology in AT1R transgenic rats was accelerated with unilateral nephrectomy (UniNX) and minipump AngII infusion. Compound 100 was dosed orally once daily at 3 mg/kg or 10 mg/kg, and the urine protein creatinine ratio was determined at -1, 0, 1, 2, and 3 weeks of treatment. […] UniNX, AngII […], and compound 100 […] occurred at the time points indicated.

Usually IC50 stands for the concentration that gives 50% inhibition. With `CC1Cc2c(ncnc2Oc2ccc(F)cc2Cl)CN1c1cn[nH]c(=O)c1Cl` (single isomer, unassigned) [Compound 117a], the IC50 on TRPC5 was greater than 1 µM.

`CC(c1ccc(F)cc1C(F)(F)F)c1ncnc2c1CCN(c1cn[nH]c(=O)c1Cl)C2` (single isomer, unassigned) [Compound 126, 4-Chloro-5-[4-[(1 S)-1-[4-fluoro-2-(trifluoromethyl)phenyl]ethyl]-5H,6H,7H,8H-pyrido[3,4-d]pyrimidin-7-yl]-2,3-dihydropyridazin-3-one]: on TRPC5, the IC50 is less than 0.05 µM.

`CC(c1ccc(F)cc1C(F)(F)F)c1ncnc2c1CCN(c1cn[nH]c(=O)c1Cl)C2` (single isomer, unassigned) [Compound 126a]: at TRPC5, the 50% inhibitory concentration (IC50) was 0.05 to 0.5 µM.

In the case of `CC(O)c1nc2c(c(Oc3ccc(F)cc3C(F)(F)F)n1)CCN(c1cn[nH]c(=O)c1Cl)C2` (single isomer, unassigned) [Compound 129, 4-Chloro-5-[4-[4-fluoro-2-(trifluoromethyl)phenoxy]-2-[(1 S)-1-hydroxyethyl]-5H,6H,7H,8H-pyrido[3,4-d]pyrimidin-7-yl]-2,3-dihydropyridazin-3-one], on TRPC5, the half-inhibitory concentration (IC50) is less than 0.05 µM.

Turning to `CC(O)c1nc2c(c(Oc3ccc(F)cc3C(F)(F)F)n1)CCN(c1cn[nH]c(=O)c1Cl)C2` (single isomer, unassigned) [Compound 130], on TRPC5, the IC50 was less than 0.05 µM.

Regarding `O=c1[nH]ncc(N2CCc3c(nc([C@@H](O)CO)nc3Oc3ccc(F)cc3C(F)(F)F)C2)c1Cl` (single isomer, unassigned) [Compound 135], at TRPC5, the IC50 was less than 0.05 µM.

`O=c1[nH]ncc(N2CCc3c(nc([C@H](O)CO)nc3Oc3ccc(F)cc3C(F)(F)F)C2)c1Cl` (single isomer, unassigned) [Compound 137]: at TRPC5, the 50% inhibitory concentration (IC50) is less than 0.05 µM.

Turning to `O=c1[nH]ncc(N2CCc3c(ncnc3Oc3ccc(F)cc3C(F)(F)F)C2)c1Cl` [Compound 100, 4-chloro-5-[4-[4-fluoro-2-(trifluoromethyl)phenoxy]-5H,6H,7H,8H-pyrido[3,4-d]pyrimidin-7-yl]-2,3-dihydropyridazin-3-one], the urinary albumin excretion entry was “Significant reductions” in assay [1] (30 mg/kg once daily (QD), at 10 days); “Significant reductions” in assay [1] (30 mg/kg twice daily (BID), at 7 and 10 days). Besides, the “urine protein creatinine ratio” value in assay [2] was “efficacious”.

With `NC(=O)c1ncn([C@@H]2O[C@H](CO)[C@@H](O)[C@H]2O)c1O` [Mizoribine, reference compound], the albuminuria entry in assay [1] (positive control compound) was “efficacious in reducing albuminuria”.

These data come from patent US11046690B2, “Pyridazinones and methods of use thereof” (Goldfinch Bio, Inc., priority 2018, dated 2021).
